From PubChem BioAssay AID248 (DTP/NCI, 2004)
Toxic doses and inconclusive results are not listed. No stated cut-off is given here; in the data, active means T/C of 150% or more; inactive means T/C below 125%.

Tested on: L1210 leukemia ip in BDF1 mice, survival T/C
Experiment: NCI In Vivo Anticancer Drug Screen. Data for tumor model L1210 Leukemia (intraperitoneal) in B6D2F1 (BDF1) mice
Conditions: endpoint: mean survival time, higher = longer survival
In short: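 Transplanted-tumor mice were given test agent; controls received vehicle only. Survival readings from the two groups were divided (treated over control).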

[1] = dose: 100.0 mg/kg/injection, schedule: Q01DX001 (ip), vehicle: saline
[2] = dose: 200.0 mg/kg/injection, schedule: Q01DX001 (ip), vehicle: saline
[3] = dose: 400.0 mg/kg/injection, schedule: Q01DX001 (ip), vehicle: saline
[4] = dose: 400.0 mg/kg/injection, schedule: Q01DX009 (ip), vehicle: Klucel (hydroxypropylcellulose) (HPC)
[5] = dose: 400.0 mg/kg/injection, schedule: Q04DX003 (ip), vehicle: Klucel (hydroxypropylcellulose) (HPC)
[6] = dose: 100.0 mg/kg/injection, schedule: Q01DX001 (ip), vehicle: other
[7] = dose: 200.0 mg/kg/injection, schedule: Q01DX001 (ip), vehicle: other
[8] = dose: 400.0 mg/kg/injection, schedule: Q01DX001 (ip), vehicle: other
[9] = dose: 100.0 mg/kg/injection, schedule: Q01DX009 (ip), vehicle: saline with Tween-80
[10] = dose: 200.0 mg/kg/injection, schedule: Q01DX009 (ip), vehicle: saline with Tween-80
[11] = dose: 100.0 mg/kg/injection, schedule: Q04DX003 (ip), vehicle: Klucel (hydroxypropylcellulose) (HPC)
[12] = dose: 200.0 mg/kg/injection, schedule: Q04DX003 (ip), vehicle: Klucel (hydroxypropylcellulose) (HPC)
[13] = dose: 100.0 mg/kg/injection, schedule: Q01DX009 (ip), vehicle: Klucel (hydroxypropylcellulose) (HPC)
[14] = dose: 200.0 mg/kg/injection, schedule: Q01DX009 (ip), vehicle: Klucel (hydroxypropylcellulose) (HPC)
[15] = dose: 50.0 mg/kg/injection, schedule: Q01DX009 (ip), vehicle: Klucel (hydroxypropylcellulose) (HPC)
[16] = dose: 100.0 mg/kg/injection, schedule: Q04DX002 (ip), vehicle: saline with Tween-80
[17] = dose: 200.0 mg/kg/injection, schedule: Q04DX002 (ip), vehicle: saline with Tween-80
[18] = dose: 400.0 mg/kg/injection, schedule: Q04DX002 (ip), vehicle: saline with Tween-80
[19] = dose: 400.0 mg/kg/injection, schedule: Q01DX009 (ip), vehicle: saline with Tween-80

Measured: T/C

O=c1[nH]cc[nH]1
inactive: [1] 100 % of control | dose: 178.0 mg/kg/injection, schedule: Q01DX009 (ip), vehicle: saline 109 % of control | [2] 105 % of control | dose: 267.0 mg/kg/injection, schedule: Q01DX009 (ip), vehicle: Klucel (hydroxypropylcellulose) (HPC) 106 % of control | dose: 267.0 mg/kg/injection, schedule: Q01DX009 (ip), vehicle: saline 119 % of control | dose: 267.0 mg/kg/injection, schedule: Q04DX003 (ip), vehicle: Klucel (hydroxypropylcellulose) (HPC) 105 % of control | [3] 109 % of control | [4] 117 % of control | [5] 104 % of control | dose: 600.0 mg/kg/injection, schedule: Q04DX003 (ip), vehicle: Klucel (hydroxypropylcellulose) (HPC) 109 % of control

CC(=O)OC1COC(n2cnc3c(=S)nc[nH]c32)C(OC(C)=O)C1OC(C)=O (configuration not stated)
inactive: [6] 107 % of control | [1] 94 % of control | [7] 90 % of control | [2] 93 % of control | [8] 96 % of control | [3] 96 % of control

Cc1cc(Cl)ccc1NC(=O)COc1ccc(Cl)cc1Cl
inactive: dose: 50.0 mg/kg/injection, schedule: Q01DX009 (ip), vehicle: saline with Tween-80 87 % of control | [9] 87 % of control | dose: 100.0 mg/kg/injection, schedule: Q04DX003 (ip), vehicle: saline with Tween-80 93 % of control | [10] 96 % of control | dose: 200.0 mg/kg/injection, schedule: Q04DX003 (ip), vehicle: saline with Tween-80 91 % of control

CCc1c(Nc2ccc(Cl)c(Cl)c2)nc(N)[nH]c1=O
inactive: dose: 100.0 mg/kg/injection, schedule: Q01DX Z (ip), vehicle: methylcellulose (MC) 99 % of control | dose: 200.0 mg/kg/injection, schedule: Q01DX Z (ip), vehicle: methylcellulose (MC) 100 % of control

Cc1nnn(N/N=C(\C(=O)Oc2ccccc2)c2ccccc2)c1C
inactive: [11] 100 % of control | [12] 103 % of control | [5] 96 % of control

CCOC(=O)C1=C2c3ccc4cc(OC)ccc4c3CCC2(C)C(=O)C1 (configuration not stated)
inactive: dose: 100.0 mg/kg/injection, schedule: Q04DX003 (sc), vehicle: steriod suspending solution 102 % of control | dose: 200.0 mg/kg/injection, schedule: Q04DX003 (sc), vehicle: steriod suspending solution 109 % of control | dose: 400.0 mg/kg/injection, schedule: Q04DX003 (sc), vehicle: steriod suspending solution 109 % of control

CC(=O)Oc1cc(-c2c(C)cc(C)cc2C)c(OC(C)=O)cc1C
inactive: [13] 104 % of control | [11] 94 % of control | [14] 97 % of control | [12] 90 % of control | [4] 97 % of control | [5] 95 % of control

Nc1nn(-c2ccccc2)c(N)c1N=Nc1ccccc1
inactive: [15] 98 % of control | [13] 98 % of control | [14] 98 % of control

CC(C)(c1cccs1)c1cscc1C(=O)O
inactive: dose: 100.0 mg/kg/injection, schedule: Q04DX003 (ip), vehicle: saline 108 % of control | dose: 200.0 mg/kg/injection, schedule: Q04DX003 (ip), vehicle: saline 113 % of control | dose: 400.0 mg/kg/injection, schedule: Q04DX003 (ip), vehicle: saline 105 % of control

O=C(O)CNC(=O)NCO
inactive: dose: 100.0 mg/kg/injection, schedule: Q01DX001 (ip), vehicle: acetone 100 % of control | dose: 200.0 mg/kg/injection, schedule: Q01DX001 (ip), vehicle: acetone 100 % of control | dose: 400.0 mg/kg/injection, schedule: Q01DX001 (ip), vehicle: acetone 103 % of control

O=C1C=Cc2ccc3c4c(ccc1c24)C=CC3=O
inactive: dose: 100.0 mg/kg/injection, schedule: Q04DX003 (ip), vehicle: acetone 98 % of control | dose: 200.0 mg/kg/injection, schedule: Q04DX003 (ip), vehicle: acetone 91 % of control

Cc1cc(OC(=O)Nc2ccccc2C(F)(F)F)cc(C)c1Cl
inactive: [9] 109 % of control | [16] 91 % of control | [10] 102 % of control | [17] 95 % of control | [18] 98 % of control

COc1c(/C=C/[N+](=O)[O-])ccc2c(C)c(C)oc12
inactive: dose: 25.0 mg/kg/injection, schedule: Q01DX009 (ip), vehicle: Klucel (hydroxypropylcellulose) (HPC) 98 % of control | [15] 95 % of control | [13] 101 % of control | [11] 98 % of control | [12] 87 % of control | [5] 92 % of control

CC(=O)NC1CCCCCC1I (configuration not stated)
inactive: dose: 10.0 mg/kg/injection, schedule: Q01DX001 (ip), vehicle: saline 105 % of control | dose: 20.0 mg/kg/injection, schedule: Q01DX001 (ip), vehicle: saline 101 % of control | dose: 40.0 mg/kg/injection, schedule: Q01DX001 (ip), vehicle: saline 98 % of control

Cc1ccccc1N=C1C(=O)Nc2ccccc21
inactive: [6] 115 % of control | [7] 91 % of control | [8] 107 % of control

C/C=C(\C)C(=O)Nc1cccc(OC(=O)NC)c1
inactive: [9] 91 % of control | [10] 88 % of control | [19] 91 % of control

CC(=O)OC1C2CCC(C2)C1C (configuration not stated)
inactive: [9] 98 % of control | [10] 104 % of control | [19] 96 % of control

CC(=O)CC(=O)Nc1cccc(Cl)c1C
inactive: [13] 89 % of control | [14] 89 % of control

Cn1c2ccccc2c(=O)c2c(O)cc3c(c21)C=C(Br)C(C)(C)O3
inactive: dose: 50.0 mg/kg/injection, schedule: Q01DX001 (ip), vehicle: carboxymethylcellulose (CMC) 88 % of control | dose: 100.0 mg/kg/injection, schedule: Q01DX001 (ip), vehicle: carboxymethylcellulose (CMC) 93 % of control | dose: 200.0 mg/kg/injection, schedule: Q01DX001 (ip), vehicle: carboxymethylcellulose (CMC) 98 % of control | dose: 400.0 mg/kg/injection, schedule: Q01DX001 (ip), vehicle: carboxymethylcellulose (CMC) 90 % of control

O=[N+]([O-])c1cc(O)ccc1Cl
inactive: dose: 50.0 mg/kg/injection, schedule: Q01DX009 (ip), vehicle: saline 93 % of control | dose: 100.0 mg/kg/injection, schedule: Q01DX009 (ip), vehicle: saline 102 % of control | dose: 100.0 mg/kg/injection, schedule: Q04DX003 (ip), vehicle: alcohol 104 % of control | dose: 200.0 mg/kg/injection, schedule: Q01DX009 (ip), vehicle: saline 87 % of control

O=C1CCc2cccc(O)c2N1
inactive: [1] 103 % of control | [2] 103 % of control

Clc1ccc(SCSc2nc3ccccc3s2)cc1
inactive: dose: 25.0 mg/kg/injection, schedule: Q04DX002 (ip), vehicle: Klucel (hydroxypropylcellulose) (HPC) 105 % of control | dose: 50.0 mg/kg/injection, schedule: Q04DX002 (ip), vehicle: Klucel (hydroxypropylcellulose) (HPC) 86 % of control | dose: 100.0 mg/kg/injection, schedule: Q04DX002 (ip), vehicle: Klucel (hydroxypropylcellulose) (HPC) 93 % of control

Cc1ccc(C(O)C(=O)O)cc1 (configuration not stated)
inactive: dose: 75.0 mg/kg/injection, schedule: Q01DX001 (ip), vehicle: acetone 100 % of control | dose: 150.0 mg/kg/injection, schedule: Q01DX001 (ip), vehicle: acetone 96 % of control

Nc1ccc(N=Nc2c(Br)cc(S(N)(=O)=O)cc2Br)c(N)n1
inactive: [1] 102 % of control | [2] 100 % of control | [3] 94 % of control

CCOC(=O)c1ccc(NC(=O)Nc2cc(OC)c(Cl)cc2OC)cc1
inactive: dose: 100.0 mg/kg/injection, schedule: Q01DX001 (ip), vehicle: saline with Tween-80 93 % of control | [16] 97 % of control | dose: 200.0 mg/kg/injection, schedule: Q01DX001 (ip), vehicle: saline with Tween-80 101 % of control | [17] 100 % of control | dose: 400.0 mg/kg/injection, schedule: Q01DX001 (ip), vehicle: saline with Tween-80 88 % of control | [18] 97 % of control

CCCCCCCCCCCCCCCCSCCCCCCCCCCCCCCCC
inactive: [9] 104 % of control | [10] 98 % of control
